# Assay results as given in patent US20240189331A1, “NOVEL […] FILM FORMULATION” (INTELGENX CORP., priority 2021, published 2024).
# “Also recorded” adds a separate entry of the source.
# Key:
# [1] = In vitro permeability study in 6 station Franz diffusion cell apparatus using porcine buccal mucosa; settings: for effect of acidifying agent in film formulation on permeation of psilocybin through pig mucosa membrane: psilocybin around its isoelectric point (pH=3.9)
# [2] = cited from earlier work
# [3] = administered orally; cited from earlier work
compound,measurement,setting,value
O=C(O)CC(O)(CC(=O)O)C(=O)O [citric acid],effect of acidifying agent in film formulation on permeation of psilocybin through pig mucosa membrane,[1],triggers permeation
O=P(O)(O)O [phosphoric acid],effect of acidifying agent in film formulation on permeation of psilocybin through pig mucosa membrane,[1],triggers permeation
"CN(C)CCc1c[nH]c2cccc(OP(=O)(O)O)c12 [psilocybin, [3-(2-Dimethylaminoethyl)-1H-indol-4-yl]dihydrogen phosphate]",pka1,[2]; first phosphate oxygen,1.3
same,pka2,[2]; second phosphate oxygen,6.5
same,pka3,[2]; tertiary amine group,10.4
same,drug absorbed into the bloodstream,[3],about 50%
same,time of maximum plasma concentration,[3],approximately 80 minutes
Benzalkonium chloride [Benzalkonium chloride (BKC)],effect of penetration enhancer on psilocybin diffusion through porcine buccal mucosa,"[1]; penetration enhancer in psilocybin film formulation, FIG. 4 and FIG. 5",improved buccal permeation; also recorded: significate increase
